According to article PMC8286599 (Gut Pathogens, 2021):
≈ marks a conversion by molar mass, not a printed value. Read-outs that look alike come from different tables or passages of the source.

Columns and labels:
EAEC strains [1] = assay: Antibiotic susceptibility testing; type: cell-based, enteroaggregative Escherichia coli; note: key: S- Sensitive; I- Intermediate; R- Resistant
Text: Supplement 13099_2021_443_MOESM1_ESM.docx, table 1: Supplementary Table 1. Antibiotic susceptibility pattern of EAEC and NTS strains under study | column: Antibiotic Susceptibility testing

EAEC strains [2] = assay: MIC values of antibiotics; type: cell-based, enteroaggregative Escherichia coli
[3] = tested on: Salmonella Enteritidis strains; type: cell-based; note: key: S- Sensitive; I- Intermediate; R- Resistant
[4] = tested on: Salmonella Typhimurium strains; type: cell-based; note: key: S- Sensitive; I- Intermediate; R- Resistant

Molecule	Antibiotic Susceptibility testing (EAEC strains [1]; strain E1)	Antibiotic Susceptibility testing (EAEC strains [1]; strain E2)	Antibiotic Susceptibility testing (EAEC strains [1]; strain E3)	Antibiotic Susceptibility testing ([3]; strain S1)	Antibiotic Susceptibility testing ([3]; strain S2)	Antibiotic Susceptibility testing ([3]; strain S3)	Antibiotic Susceptibility testing ([4]; strain ST1)	Antibiotic Susceptibility testing ([4]; strain ST2)	Antibiotic Susceptibility testing ([4]; strain ST3)	also measured
C[C@@H](O)[C@H]1C(=O)N2C(C(=O)O)=C(SCCN=CN)C[C@H]12 [IMI, Imipenem]	S	S	S							MIC Values, class symbol printed instead of a number (EAEC strains [2]; strain E1): S; MIC Values, class symbol printed instead of a number (EAEC strains [2]; strain E2): S; MIC Values, class symbol printed instead of a number (EAEC strains [2]; strain E3): S
NC[C@H]1O[C@H](O[C@H]2[C@H](O)[C@@H](O[C@H]3O[C@H](CO)[C@@H](O)[C@H](N)[C@H]3O)[C@H](N)C[C@@H]2N)[C@H](O)[C@@H](O)[C@@H]1O [K, Kanamycin]				R	S	S				
O=C1CN(/N=C/c2ccc([N+](=O)[O-])o2)C(=O)N1 [NIT, Nitrofurantoin]										Antibiotic Susceptibility testing [3]: S and R
CO/N=C(\C(=O)N[C@@H]1C(=O)N2C(C(=O)[O-])=C(C[N+]3(C)CCCC3)CS[C@H]12)c1csc(N)n1 [CPM]				S	S	S	S	S	S	
CCn1cc(C(=O)O)c(=O)c2ccc(C)nc21 [NA, Nalidicic Acid]				R	R	R	R	R	I	
CC(C)(O/N=C(\C(=O)N[C@@H]1C(=O)N2C(C(=O)[O-])=C(C[n+]3ccccc3)CS[C@H]12)c1csc(N)n1)C(=O)O [CAZ]							S	R	I	
O=C(O)c1cn(C2CC2)c2cc(N3CCNCC3)c(F)cc2c1=O [CIP]	S	R	R				R	R	R	MIC (EAEC strains [2]; strain E2): 120 µM (≈ 39.8 µg/mL); MIC (EAEC strains [2]; strain E3): 60 µM (≈ 19.9 µg/mL)
Cc1noc(NS(=O)(=O)c2ccc(N)cc2)c1C [SF, Sulphafurazole]				S	R	S				
O=C(N[C@H](CO)[C@H](O)c1ccc([N+](=O)[O-])cc1)C(Cl)Cl [C, Chloramphenicol]	S	S	S	R	S	S	R	R	R	MIC Values, class symbol printed instead of a number (EAEC strains [2]; strain E1): S; MIC Values, class symbol printed instead of a number (EAEC strains [2]; strain E2): S; MIC Values, class symbol printed instead of a number (EAEC strains [2]; strain E3): S
Nc1ccc(S(=O)(=O)Nc2ncccn2)cc1 [SD, Sulfadiazine]										Antibiotic Susceptibility testing [3]: R
CN(C)[C@@H]1C(O)=C(C(N)=O)C(=O)[C@@]2(O)C(O)=C3C(=O)c4c(O)cccc4[C@@](C)(O)[C@H]3C[C@@H]12 [TE]	R	R	R	R	S	S	R	R	R	MIC (EAEC strains [2]; strain E1): 60 µM (≈ 26.7 µg/mL); MIC (EAEC strains [2]; strain E2): 2 µM (≈ 0.889 µg/mL); MIC (EAEC strains [2]; strain E3): 30 µM (≈ 13.3 µg/mL)
C[C@@H](O)[C@H]1C(=O)N2C(C(=O)O)=C(S[C@@H]3CN[C@H](C(=O)N(C)C)C3)[C@H](C)[C@H]12 [MRP, Meropenem]				S	S	S				
CO/N=C(\C(=O)N[C@@H]1C(=O)N2C(C(=O)O)=C(COC(C)=O)CS[C@H]12)c1csc(N)n1 [CTX]				S	S	S				
CO/N=C(\C(=O)N[C@@H]1C(=O)N2C(C(=O)O)=C(COC(C)=O)CS[C@H]12)c1csc(N)n1 [CTR, Cefotaxime]	S	R	R				S	R	S	MIC (EAEC strains [2]; Escherichia coli, strain E2): > 240 µM; MIC Values, class symbol printed instead of a number (EAEC strains [2]; strain E1): S; MIC (EAEC strains [2]; strain E3): >240 µM
Cc1cc(NS(=O)(=O)c2ccc(N)cc2)no1 [SXT, Sulfamethoxazole]	R	S	R							
CC[C@H]1OC(=O)[C@H](C)[C@@H](O[C@H]2C[C@@](C)(OC)[C@@H](O)[C@H](C)O2)[C@H](C)[C@@H](O[C@@H]2O[C@H](C)C[C@H](N(C)C)[C@H]2O)[C@](C)(O)C[C@@H](C)CN(C)[C@H](C)[C@@H](O)[C@]1(C)O [AZM, Azithromycin]										Antibiotic Susceptibility testing [3]: S
CCN1CCN(C(=O)N[C@@H](C(=O)N[C@@H]2C(=O)N3C(C(=O)O)=C(CSc4nnnn4C)CS[C@H]23)c2ccc(O)cc2)C(=O)C1=O [CPZ, Cefoperozone]				S	S	S				
C[C@@H](O)[C@H]1C(=O)N2C(C(=O)O)=C(SCCN=CN)C[C@H]12 [IPM]							S	S	S	
C[C@H]1COc2c(N3CCN(C)CC3)c(F)cc3c(=O)c(C(=O)O)cn1c23 [LE, Levofloxacin]							R	R	I	
C[C@H]1[C@H](NC(=O)/C(=N\OC(C)(C)C(=O)O)c2csc(N)n2)C(=O)N1S(=O)(=O)O [AT, Aztreonam]				S	S	S				
Colistin sulphate	S	S	S							MIC Values, class symbol printed instead of a number (EAEC strains [2]; strain E1): S; MIC Values, class symbol printed instead of a number (EAEC strains [2]; strain E2): S; MIC Values, class symbol printed instead of a number (EAEC strains [2]; strain E3): S
COCC1=C(C(=O)O)N2C(=O)[C@@H](NC(=O)/C(=N\OC)c3csc(N)n3)[C@H]2SC1 [CPD, Cefpodoxime]				R	R	R				
CC1(C)S[C@@H]2[C@H](NC(=O)[C@H](N)c3ccccc3)C(=O)N2[C@H]1C(=O)O [AMP]	R	R	R	R	R	R	R	R	R	MIC (EAEC strains [2]; strain E1): >240 µM; MIC (EAEC strains [2]; strain E2): >240 µM; MIC (EAEC strains [2]; strain E3): >240 µM
Cc1nnc(SCC2=C(C(=O)O)N3C(=O)[C@@H](NC(=O)Cn4cnnn4)[C@H]3SC2)s1 [CZ]							S	S	S	
CO[C@@]1(NC(=O)Cc2cccs2)C(=O)N2C(C(=O)O)=C(COC(N)=O)CS[C@@H]21 [CX]										Antibiotic Susceptibility testing [4]: S and R and I; Antibiotic Susceptibility testing [3]: S
